Drawing on patent publication US12291529B2, “Heterocyclic GLP-1 agonists” (Gasherbrum Bio, Inc., priority 2023, dated 2025), this text covers EC50 for 30 molecules.

Chain of GLP-1 Receptor (P43220 24-463, species assumed): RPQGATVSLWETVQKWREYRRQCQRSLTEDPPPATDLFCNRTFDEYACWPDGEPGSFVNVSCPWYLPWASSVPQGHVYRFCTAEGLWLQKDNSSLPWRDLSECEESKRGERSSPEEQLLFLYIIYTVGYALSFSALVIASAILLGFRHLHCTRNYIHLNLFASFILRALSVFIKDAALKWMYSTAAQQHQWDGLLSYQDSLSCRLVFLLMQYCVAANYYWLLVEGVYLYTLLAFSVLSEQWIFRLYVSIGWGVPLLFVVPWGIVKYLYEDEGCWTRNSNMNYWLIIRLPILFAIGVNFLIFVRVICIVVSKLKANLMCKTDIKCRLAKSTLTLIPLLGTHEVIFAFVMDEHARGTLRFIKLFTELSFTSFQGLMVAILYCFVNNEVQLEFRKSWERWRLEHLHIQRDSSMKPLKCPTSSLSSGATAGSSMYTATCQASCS

This experiment has as its target GLP-1 Receptor (Homo sapiens, UniProt P43220). Description: GLP-1R agonist cAMP stimulation assay (HEK293/GLP1R/CRE-LUC cells, Cisbio cAMP dynamic 2 kit). Format: cell-based. The following applies: Table 3, HEK293/GLP1R/CRE-LUC cells, 30 min. Here is the method:
Activation of GLP-1 receptor is known to stimulate cyclic AMP (cAMP) production in cells which indicates primary coupling to the G as subunit of the G protein heterotrimeric complex.
To optimize functional activity directed toward G as coupling, a HEK293/CRE-Luc cell line developed by HDB stably expressing the GLP-1 Receptor was used. 200× concentration of compound working solutions were prepared (Agilent Technologies Bravo) with ½ log serial dilution in 384-well Echo LDV plate (Labcyte, CatOLP-0200). 50 nL/well 200× concentration of compound working solutions were moved to 384-well white low volume plate (Greiner, Cat4784075) using Labcyte ECH0550.1×10^5 cells/mL HEK293/GLP1R/CRE-LUC (HD Biosciences) cell suspensions prepared with assay buffer (DPBS containing 0.5 mM IBMX (Sigma, Cat15879) and 0.10 BSA (GENVIEW, Cat4FA016-100g)), 10 uL cell suspensions were added to each well of previous generated assay plate which already contains 50 n^1 compound at 200 xconcentration using ThermioFisher Multidrop Combi (1000 cells/well). Seal the plate and incubate at 37 with […] for 30 m.
After incubation the cAMP assay signal was generated using cAMP dynamic 2 Kit (Cisbio). 5 μL cAMP-d2 working solution was added to each well, followed with 5 L Anti-cAMP antibody-cryptate working solution added to each well using ThermoFisher Multidrop Combi. Incubate at room temperature for 1 hour protected from light. Read the fluorescence at 665 and 615 nm with Reader PerkinElmer EnVision. % oActivity=100%×(mean RLU of test sample−mean RLU of vehicle control)/(mean RLU of MAX control−mean RLU of vehicle control)
In the case of `CN=S(C)(=O)c1ccc(-n2ccn(-c3c4c(nn3-c3cc(C)c(F)c(C)c3)CCN(C(=O)c3cc5cc(C6CCOCC6)ccc5n3[C@@]3(c5noc(=O)[nH]5)C[C@@H]3C)[C@H]4C)c2=O)cc1` (single isomer, unassigned) [Compound 112], the midpoint of the response, the EC50, lay at 0.057 nM.

With `Cc1cc(-n2nc3c(c2-n2ccn(-c4ccc(S(C)(=O)=NC#N)cc4)c2=O)[C@H](C)N(C(=O)c2cc4cc(C5CCOCC5)ccc4n2[C@@]2(c4noc(=O)[nH]4)C[C@@H]2C)CC3)cc(C)c1F` (single isomer, unassigned) [Compound 113], a half-maximal effect (EC50) was put at 0.035 nM.

On to `Cc1cc(-n2nc3c(c2-n2ccn(-c4ccc(S(C)(=N)=O)cc4)c2=O)[C@H](C)N(C(=O)c2cc4cc(C5CCOCC5)ccc4n2[C@@]2(c4noc(=O)[nH]4)C[C@@H]2C)CC3)cc(C)c1F` (single isomer, unassigned) [Compound 114], for which a half-maximal response (EC50) required 0.017 nM.

Molecule `Cc1cc(-n2nc3c(c2-n2ccn(-c4ccc(S(C)(=N)=O)cc4)c2=O)[C@H](C)N(C(=O)c2cc4cc(C5CCOCC5)ccc4n2[C@@]2(c4noc(=O)[nH]4)C[C@@H]2C)CC3)cc(C)c1F` (single isomer, unassigned) [Compound 115] came in with a half-maximal effective concentration (EC50) of 0.049 nM. Against the preceding molecule, the EC50 is about 2.9-fold higher.

Regarding `CCS(=N)(=O)c1ccc(-n2ccn(-c3c4c(nn3-c3cc(C)c(F)c(C)c3)CCN(C(=O)c3cc5cc(C6CCOCC6)ccc5n3[C@@]3(c5noc(=O)[nH]5)C[C@@H]3C)[C@H]4C)c2=O)cc1` (single isomer, unassigned) [Compound 116], the half-maximal effective concentration (EC50) was 0.049 nM.

In the case of `CCS(=N)(=O)c1ccc(-n2ccn(-c3c4c(nn3-c3cc(C)c(F)c(C)c3)CCN(C(=O)c3cc5cc(C6CCOCC6)ccc5n3[C@@]3(c5noc(=O)[nH]5)C[C@@H]3C)[C@H]4C)c2=O)cc1` (single isomer, unassigned) [Compound 117], the EC50 turned out to be 0.011 nM.

With `Cc1cc(-n2nc3c(c2-n2ccn(-c4ccc(S(C)(=O)=NC#N)cc4)c2=O)[C@H](C)N(C(=O)c2cc4cc(C5CCOCC5)ccc4n2[C@@]2(c4noc(=O)[nH]4)C[C@@H]2C)CC3)cc(C)c1F` (single isomer, unassigned) [Compound 122], a half-maximal effect (EC50) was put at 0.046 nM.

In turn, `Cc1cc(-n2nc3c(c2-n2ccn(-c4ccc(S5(=O)=NCCC5)cc4)c2=O)[C@H](C)N(C(=O)c2cc4cc(C5CCOCC5)ccc4n2C2(c4nsc(=O)[nH]4)CC2)CC3)cc(C)c1F` (single isomer, unassigned) [Compound 130] showed a half-maximal effective concentration (EC50) of 0.23 nM.

Molecule `Cc1cc(-n2nc3c(c2-n2ccn(-c4ccc(S5(=O)=NCCC5)cc4)c2=O)[C@H](C)N(C(=O)c2cc4cc(C5CCOCC5)ccc4n2C2(c4nsc(=O)[nH]4)CC2)CC3)cc(C)c1F` (single isomer, unassigned) [Compound 131] displayed a half-maximal effective concentration (EC50) of 0.05 nM.

On to `CCS(=N)(=O)c1ccc(-n2ccn(-c3c4c(nn3-c3cc(C)c(F)c(C)c3)CCN(C(=O)c3sc5cc(C6CCOCC6)ccc5c3C3(c5noc(=O)[nH]5)CC3)[C@H]4C)c2=O)cc1` (single isomer, unassigned) [Compound 132], for which it took 0.98 nM to reach a half-maximal effect (EC50).

In turn, `Cc1cc(-n2nc3c(c2-n2ccn(-c4ccc(S(=N)(=O)C5CC5)cc4)c2=O)[C@H](C)N(C(=O)c2cc4cc(C5CCOCC5)ccc4n2[C@@]2(c4noc(=O)[nH]4)C[C@@H]2C)CC3)cc(C)c1F` (single isomer, unassigned) [Compound 134] came in with an EC50 of 0.0051 nM. This EC50 lies about 190-fold lower than the previous one.

Molecule `Cc1cc(-n2nc3c(c2-n2ccn(-c4ccc(S(=N)(=O)C5CC5)cc4)c2=O)[C@H](C)N(C(=O)c2cc4cc(C5CCOCC5)ccc4n2[C@@]2(c4noc(=O)[nH]4)C[C@@H]2C)CC3)cc(C)c1F` (single isomer, unassigned) [Compound 135] had an EC50 of 0.001 nM.

With `CCS(=N)(=O)c1ccc(-n2ccn(-c3c4c(nn3-c3cc(C)c(F)c(C)c3)CCN(C(=O)c3cc5cc(C6CCOCC6)ccc5n3[C@@]3(c5noc(=O)[nH]5)C[C@@H]3C)[C@H]4C)c2=O)c(Cl)c1` (single isomer, unassigned) [Compound 136], the concentration for a half-maximal effect (EC50) was found to be 0.047 nM.

Molecule `CCS(=N)(=O)c1ccc(-n2ccn(-c3c4c(nn3-c3cc(C)c(F)c(C)c3)CCN(C(=O)c3cc5cc(C6CCOCC6)ccc5n3[C@@]3(c5noc(=O)[nH]5)C[C@@H]3C)[C@H]4C)c2=O)c(Cl)c1` (single isomer, unassigned) [Compound 137] yielded an EC50 of 0.15 nM.

As for `CCS(=N)(=O)c1ccc(-n2ccn(-c3c4c(nn3-c3cc(C)c(F)c(C)c3)CCN(C(=O)c3cc5cc(C6CCOCC6)ccc5n3[C@@]3(c5noc(=O)[nH]5)C[C@@H]3C)[C@H]4C)c2=O)c(F)c1` (single isomer, unassigned) [Compound 138], it took 0.001 nM to reach a half-maximal effect (EC50).

`CCS(=N)(=O)c1ccc(-n2ccn(-c3c4c(nn3-c3cc(C)c(F)c(C)c3)CCN(C(=O)c3cc5cc(C6CCOCC6)ccc5n3[C@@]3(c5noc(=O)[nH]5)C[C@@H]3C)[C@H]4C)c2=O)c(F)c1` (single isomer, unassigned) [Compound 139] had a concentration for a half-maximal effect (EC50) of 0.062 nM.

`CCS(=N)(=O)c1ccc(-n2ccn(-c3c4c(nn3-c3cc(C)c(F)c(C)c3)CCN(C(=O)c3cc5cc(C6CCOCC6)ccc5n3[C@@]3(c5noc(=O)[nH]5)C[C@@H]3C)[C@H]4C)c2=O)cn1` (single isomer, unassigned) [Compound 140] returned an EC50 of 0.099 nM.

Molecule `CCS(=N)(=O)c1ccc(-n2ccn(-c3c4c(nn3-c3cc(C)c(F)c(C)c3)CCN(C(=O)c3cc5cc(C6CCOCC6)ccc5n3[C@@]3(c5noc(=O)[nH]5)C[C@@H]3C)[C@H]4C)c2=O)cn1` (single isomer, unassigned) [Compound 141] had a half-maximal effective concentration (EC50) of 0.022 nM.

As for `Cc1nnc(C2(n3c(C(=O)N4CCc5nn(-c6cc(C)c(F)c(C)c6)c(-n6ccn(-c7ccc(S8(=O)=NCCC8)cc7)c6=O)c5[C@@H]4C)cc4cc(C5CCOCC5)ccc43)CC2)o1` (single isomer, unassigned) [Compound 155], the EC50 was found to be 0.99 nM.

Molecule `Cc1nnc(C2(n3c(C(=O)N4CCc5nn(-c6cc(C)c(F)c(C)c6)c(-n6ccn(-c7ccc(S8(=O)=NCCC8)cc7)c6=O)c5[C@@H]4C)cc4cc(C5CCOCC5)ccc43)CC2)o1` (single isomer, unassigned) [Compound 156] yielded an EC50 of 1.5 nM. Compared with the last molecule, the EC50 is about 1.5-fold higher.

Consider `Cc1nnc(Cn2c(C(=O)N3CCc4nn(-c5cc(C)c(F)c(C)c5)c(-n5ccn(-c6ccc(S7(=O)=NCCC7)cc6)c5=O)c4[C@@H]3C)cc3cc(C4CCOCC4)ncc32)o1` (single isomer, unassigned) [Compound 159], for which a half-maximal response (EC50) required 5.9 nM.

The molecule `CCS(=O)(=NC)c1ccc(-n2ccn(-c3c4c(nn3-c3cc(C)c(F)c(C)c3)CCN(C(=O)c3cc5cc(C6CCOCC6)ccc5n3C[C@@H]3CCO3)[C@H]4C)c2=O)cc1` (single isomer, unassigned) [Compound 162] showed a 50% effective concentration (EC50) of 3.2 nM.

With `CCS(=O)(=NC)c1ccc(-n2ccn(-c3c4c(nn3-c3cc(C)c(F)c(C)c3)CCN(C(=O)c3cc5cc(C6CCOCC6)ccc5n3C[C@H]3CCO3)[C@H]4C)c2=O)cc1` (single isomer, unassigned) [Compound 165], the EC50 is 9.9 nM.

In turn, `CCS(=N)(=O)c1ccc(-n2ccn(-c3c4c(nn3-c3ccc(F)c(C5CC5)c3)CCN(C(=O)c3cc5cc(C6CCOCC6)ccc5n3[C@@]3(c5noc(=O)[nH]5)C[C@@H]3C)[C@H]4C)c2=O)c(F)c1` (single isomer, unassigned) [Compound 166] displayed an EC50 of 0.019 nM. Compared with the last molecule, the EC50 is about 520-fold lower.

Regarding `CCS(=N)(=O)c1ccc(-n2ccn(-c3c4c(nn3-c3ccc(F)c(C5CC5)c3)CCN(C(=O)c3cc5cc(C6CCOCC6)ccc5n3[C@@]3(c5noc(=O)[nH]5)C[C@@H]3C)[C@H]4C)c2=O)c(F)c1` (single isomer, unassigned) [Compound 167], a half-maximal response (EC50) required 0.12 nM.

Consider `Cc1cc(-n2nc3c(c2-n2ccn(-c4ccc(S(=N)(=O)C5CCC5)cc4F)c2=O)[C@H](C)N(C(=O)c2cc4cc(C5CCOCC5)ccc4n2[C@@]2(c4noc(=O)[nH]4)C[C@@H]2C)CC3)cc(C)c1F` (single isomer, unassigned) [Compound 169], for which the half-maximal effective concentration (EC50) was found to be 0.07 nM.

`CCS(=O)(=NC)c1ccc(-n2ccn(-c3c4c(nn3-c3cc(C)c(F)c(C)c3)CCN(C(=O)c3cc5cc(C6CCOCC6)ccc5n3Cc3cnc(C)cn3)[C@H]4C)c2=O)c(F)c1` (single isomer, unassigned) [Compound 170]: a half-maximal effect (EC50) was put at 1.8 nM.

The molecule `CCS(=O)(=NC)c1ccc(-n2ccn(-c3c4c(nn3-c3cc(C)c(F)c(C)c3)CCN(C(=O)c3cc5cc(C6CCOCC6)ccc5n3Cc3ccc(C)nc3)[C@H]4C)c2=O)c(F)c1` (single isomer, unassigned) [Compound 171] displayed an EC50 of 8.8 nM. Compared with the last molecule, the EC50 is about 4.9-fold higher.

Turning to `Cc1cc(-n2nc3c(c2-n2ccn(-c4ccc(S5(=O)=NCCC5)cc4)c2=O)[C@H](C)N(C(=O)c2cc4cc(C5CCOCC5)ccc4n2C2(c4nnn[nH]4)CC2)CC3)cc(C)c1F` (single isomer, unassigned) [Compound 172], a half-maximal response (EC50) required 0.037 nM. Compared with the last molecule, the EC50 is about 240-fold lower.

In the case of `CC[C@H]1C[C@]1(c1noc(=O)[nH]1)n1c(C(=O)N2CCc3nn(-c4cc(C)c(F)c(C)c4)c(-n4ccn(-c5ccc(S(=N)(=O)CC)cc5F)c4=O)c3[C@@H]2C)cc2cc(C3CCOCC3)ccc21` (single isomer, unassigned) [Compound 173], the concentration giving a half-maximal response (EC50) turned out to be 0.012 nM.

For orientation: EC50 means the concentration needed to bring the measured effect to its halfway point.
